The record followed here is patent US4105768A, “Hypotensive substituted 1,2,4-triazoles” (priority 1973, dated 1978).

The structures appear in SMILES notation. Where two headings read alike, the source gives them in different places.

Data set [1] can be described thus: Acute toxicity in mice (LD50 i.p.). As to conditions: mouse, in vivo, ip.
Data set [2] deals with spontaneously hypertensive rats of the SHR/N strain. As to the kind of experiment: Antihypertensive effect in spontaneously hypertensive rats, oral. It is filed as in vivo. The note with it: Rattus norvegicus, 3 h; three consecutive daily oral doses; measured before and three hours after administration; unanesthetized SHR/N rats; read-out: effective antihypertensive dose, defined as the dose which reduced the mean arterial blood pressure more than 30 mm Hg. The procedure:
The antihypertensive effects of the hydrochloride salt of the compound of the invention with the designation FLA 486 having the formula [drawing 25] have been compared with those of FLA 136 with the formula [drawing 26] in spontaneously hypertensive rats of the SHR/N strain (Mollegaard Hansens Avlslaboratorier A/S, Denmark). The animals were prepared for measurements of the arterial blood pressure through a catheter implanted into the abdominal aorta and exteriorized at the base of the neck. Groups of two rats were given three consecutive daily oral doses of the test compounds. Measurements were performed before and three hours after administration to the unanesthetized animal. The effective antihypertensive dose of FLA 486, defined as the dose which reduced the mean arterial blood pressure more than 30 mm Hg was 5-10 mg/kg. The corresponding value for FLA 136 was 5-10 mg/kg.

In the next data set the test system is mice. As to the kind of experiment: Effect on the spontaneous motor activity of mice. It is filed as in vivo, mouse. As to conditions: i.p., mice; compared to Wy-8678. The procedure:
(§1) The effect on the spontaneous motor activity was tested in mice. Groups of six animals were given the test compounds intraperitoneally one and three hours before test. The animals were placed individually in an activity meter and the activity was recorded for ten minutes. The dose which reduced the spontaneous motor activity to 50 percent of that of control mice was calculated.

Data set [3] can be described thus: Effect on the spontaneous motor activity of mice. It is filed as in vivo, mouse. The note with it: mouse, in vivo, ip, read-out: Intraperitoneal dose which reduced the spontaneous motor activity of mice to 50 % of control values; for ED50 at 1 h: measurements one hour after administration; for ED50 at 3 h: measurements three hours after administration. The protocol: as §1

The next data set has as its system anaesthetized rats. It is filed as in vivo, rat.
The test system of the next data set is renal hypertensive rats. The experiment in a line: Antihypertensive effect (mean arterial blood pressure) in unanaesthetized renal hypertensive rats, oral. It is filed as in vivo, rat. As to conditions: for Minimum daily oral dose with antihypertensive effects defined as the dose which reduced the mean arterial blood pressure more than 15 mm Hg in unanaesthetized renal hypertensive rats: three consecutive daily oral doses, measured before and three hours after administration. The procedure: The antihypertensive effects were tested in rats in which high blood pressure had been produced by removal of one kidney and restricting the blood flow to the remaining one two months before the experiments. The animals were prepared for measurements of the arterial blood pressure through a catheter implanted into the abdonimal aorta and exteriorized at the base of the neck. Groups of two rats were given three consecutive daily oral doses of the test compounds from the scale: 2.5, 5, 10, 20, and 40 mg/kg. Measurements were performed before and three hours after administration to the unanaesthetized animal. The minimum daily oral dose with antihypertensive effect was defined as the dose which reduced the mean arterial blood pressure more than 15 mm Hg.

As for `Cl.Nn1cnnc1NN=Cc1c(Cl)cccc1Cl` [FLA 136, 4-Amino-3-(2,6-dichlorobenzylidenehydrazino)-1,2,4-triazole hydrochloride], in data set [1], the LD50 (commonly the dose expected to kill half of the subjects tested) is 340 mg/kg. Also, the minimal effective dose in data set [2] was in the range of 5 to 10 mg/kg. The “sedative effects (in words)” value with mice is on record as “lack of sedative effects”. Also, in data set [3], the ED50 at 1 h is 90 mg/kg and the ED50 at 3 h amounted to 170 mg/kg. In the data set on anaesthetized rats (rat, in vivo, iv, 40 mg/kg), the “initial rise in blood pressure” value is given as “did not produce an initial rise in blood pressure even at 40 mg/kg”. Also, the “antihypertensive effect (in words)” value with renal hypertensive rats (oral, compared with Wy-8678) is listed as “of the same degree as that of one of the present known most active hypotensive compounds”. In addition, the “Minimum daily oral dose with antihypertensive effects defined as the dose which reduced the mean arterial blood pressure more than 15 mm Hg in unanaesthetized renal hypertensive rats” value in the data set with renal hypertensive rats is 2.5 to 5 mg/kg.

Consider `NC(N)=NN=Cc1c(Cl)cccc1Cl` [Wy-8678, reference compound], for which the LD50 in data set [1] worked out at 70 mg/kg. In addition, in data set [3], the ED50 at 1 h turned out to be 3 mg/kg and the ED50 at 3 h came to 3 mg/kg. Besides, the “initial rise in blood pressure” value with anaesthetized rats (intravenous, consecutive increasing doses, anaesthetized rats, highest dose tested of test compound 40 mg/kg) is recorded as “produced a large increase in arterial pressure even at doses as low as 0.01 mg/kg”. Moreover, the “Minimum daily oral dose with antihypertensive effects defined as the dose which reduced the mean arterial blood pressure more than 15 mm Hg in unanaesthetized renal hypertensive rats” value with renal hypertensive rats worked out at 2.5 mg/kg.

In the case of `CNn1cnnc1NN=Cc1c(Cl)cccc1Cl` [FLA 486], the minimal effective dose in data set [2] was in the range of 5 to 10 mg/kg.
